Laboratory results from patent US20260199485A1, “RNA DEGRADERS AND USES THEREOF” (Arrakis Therapeutics, Inc., priority 2022, published 2026).

Assays:
CNOT7 [1] = molecular target: T1, CNOT7 (Homo sapiens, UniProt Q9UIV1); experiment: Binding of compounds to CNOT7 by surface plasmon resonance (SPR)
T1 construct: biotin (biotinylated); purchased Ichor Life Sciences
In short: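 Biotinylated CNOT7 captured on a streptavidin chip (~7,500 RU); compounds injected at several concentrations (120 s association, 120 s dissociation, 30 ul/min) in 20 mM HEPES pH7.5, 100 mM KCl, 3 mM MgCl2, 1 mM TCEP, 0.05% tween-20, 2% DMSO. Reference- and solvent-corrected sensograms fit to a 1:1 steady-state affinity model.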

CNOT7 [2] = molecular target: T1, CNOT7; experiment: CNOT7 inhibition assay (recombinant Avi-tagged CNOT7, deadenylation gel); format: biochemical; conditions: 50 μM compound, 100 nM recombinant Avi-tagged CNOT7, 200 nM RNA
Procedure: Recombinant CNOT7 (with a C-terminal Avi tag) was produced in E. coli and purified to high purity. For this biochemical assay, deadenylation reactions are carried out by refolding 2 microM fluorescently labeled RNA substrate (5′ 6-FAM-[…] AAAAAA (SEQ ID NO:1) in the presence of 100 mM KCl and 3 mM MgCl2 at 37 C for 30 minutes and then pre-incubating the RNA with 500 microM compound (inhibitor, heterobifunctional, or the CNOT7 binding moiety of the heterobifunctional) at room temperature for 30 minutes (in the presence of 0.05% Tween-20) before initiating the deadenylation reaction with the addition of the recombinant CNOT7 (with Avi-tag). In the reactions, the final concentration of RNA was 200 nM, the final concentration of the compounds was 50 μM, and the final concentration of CNOT7 was 100 nM. Glycerol and BSA were included in the reactions to aid in protein stability and activity (final concentrations of 5% and 0.15 mg/mL, respectively). Timepoints were removed from the reaction and quenched by adding formamide loading dye including 10 mM EDTA. Samples were run on 15% TBE-Urea gels at 180V for 2-2.5 hours and imaged using an Azure imager with FAM detection settings. Bands were quantified using ImageJ and % full length substrate over time was normalized to band intensity at time zero.
This was to be expected as the CNOT7 binding moieties are not expected to bind in the active site or interfere with the ability of CNOT7 to deadenylate RNA. […] We speculate that the inhibition is caused by specific interaction of the heterobifunctional compounds with the recombinant Avi-tagged CNOT7.

CNOT7:CNOT1 complex = molecular target: T2, CNOT7:CNOT1 complex (Homo sapiens, UniProt Q9UIV1); experiment: CNOT7:CNOT1 recombinant assay (deadenylation gel); format: biochemical; conditions: 50 microM compound, 50 nM CNOT7:CNOT1
T2 construct: purchased Helix Biosciences; host or cells: E. coli
T2 sequence (Q9UIV1 whole entry): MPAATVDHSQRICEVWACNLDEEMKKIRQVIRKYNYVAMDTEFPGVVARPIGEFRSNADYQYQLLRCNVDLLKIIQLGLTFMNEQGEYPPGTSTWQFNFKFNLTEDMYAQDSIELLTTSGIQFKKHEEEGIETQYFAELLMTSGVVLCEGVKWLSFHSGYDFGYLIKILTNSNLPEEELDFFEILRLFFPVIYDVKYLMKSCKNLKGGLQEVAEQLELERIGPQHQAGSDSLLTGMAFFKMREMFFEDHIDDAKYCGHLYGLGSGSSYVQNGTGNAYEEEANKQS
T2 sequence (A5YKK6 1093-1317 partner limits assumed): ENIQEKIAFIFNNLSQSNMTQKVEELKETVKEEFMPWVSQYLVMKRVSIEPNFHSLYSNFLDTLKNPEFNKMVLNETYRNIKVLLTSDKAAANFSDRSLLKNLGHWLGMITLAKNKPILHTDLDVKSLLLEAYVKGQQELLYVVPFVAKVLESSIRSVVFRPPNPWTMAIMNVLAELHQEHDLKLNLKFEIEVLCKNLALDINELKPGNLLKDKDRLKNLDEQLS
Procedure: Recombinant CNOT7:CNOT1 (MIF4G domain: aa 1093-1317) complex was produced in E. coli including an 8×His affinity tag, which was cleaved prior to use. The resulting untagged complex was purified to high purity (Helix Biosciences). For this biochemical assay, deadenylation reactions are carried out by refolding 2 microM fluorescently labeled RNA substrate (5′ 6-FAM-[…] AAAAAA (SEQ ID NO:1)) in the presence of 100 mM KCl and 3 mM MgCl2 at 37 C for 30 minutes and then pre-incubating the RNA with 500 microM compound (inhibitor, heterobifunctional, or the CNOT7 binding moiety of the heterobifunctional) at room temperature for 30 minutes (in the presence of 0.05% Tween-20) before initiating the deadenylation reaction with the addition of recombinant CNOT7:CNOT1 complex. In the reactions, the final concentration of RNA was […], the final concentration of the compounds was 50 microM, and the final concentration of CNOT7:CNOT1 was 50 nM. Glycerol and BSA were included in the reactions to aid in protein stability and activity (final concentrations of 5% and 0.15 mg/mL, respectively). Timepoints were removed from the reaction and quenched by adding formamide loading dye including 10 mM EDTA. Samples were run on 15% TBE-Urea gels at 180V for 2-2.5 hours to resolve substrate and product bands and imaged using an Azure imager with FAM detection settings. Bands were quantified using ImageJ and % full length substrate over time was calculated by [Intensity of substrate band]/[Total intensity of full lane of gel].

CNOT7 [3] = molecular target: T1, CNOT7; experiment: AMP competition assay by SPR (active site vs other site of CNOT7); format: binding; conditions: combination with AMP, increasing concentrations
Procedure: In order to evaluate if the compounds bound to the active site of CNOT7, an AMP competition experiment was performed. FIG. 5 provides a schematic of a surface plasmon resonance (SPR) experiment to interrogate if a CNOT7 binding compound binds in the active site of CNOT7. Briefly, AMP, which is a known binder to the active site, was interrogated at increasing concentrations for binding to CNOT7. As a next step, a CNOT7 binding compound was interrogated at increasing concentrations for binding to CNOT7. As a final step a combination of AMP and CNOT7 binding compound was interrogated by SPR at increasing concentrations for binding to CNOT7. If the signals were additive, AMP and the CNOT7 compounds bind to independent sites on CNOT7. […] In contrast, if the signals are not additive, this would indicate that AMP and CNOT7 […] for the same site. […] As a control, literature compounds that are active site binders, compounds A, B and C, are not additive when combined with AMP.

[4] = molecular target: T3, CNOT7-FKBP12(F36V) fusion protein (Homo sapiens, UniProt Q9UIV1); experiment: Biochemical gel assay: degradation/deadenylation of RNA substrate with immunoprecipitated CNOT7-FKBP12(F36V); design: key to Activity by gel: +: an activity observed as compared to DMSO control; −: no activity observed as compared to DMSO control; conditions: for Activity by gel: Table 8, degradation of RNA, compared to DMSO control
T3 construct: expressed in transfected cells; host or cells: H1299 cells; anti-HA immunoprecipitation, HA-peptide elution
T3 sequence (Q9UIV1 with tags, fused parts or gaps): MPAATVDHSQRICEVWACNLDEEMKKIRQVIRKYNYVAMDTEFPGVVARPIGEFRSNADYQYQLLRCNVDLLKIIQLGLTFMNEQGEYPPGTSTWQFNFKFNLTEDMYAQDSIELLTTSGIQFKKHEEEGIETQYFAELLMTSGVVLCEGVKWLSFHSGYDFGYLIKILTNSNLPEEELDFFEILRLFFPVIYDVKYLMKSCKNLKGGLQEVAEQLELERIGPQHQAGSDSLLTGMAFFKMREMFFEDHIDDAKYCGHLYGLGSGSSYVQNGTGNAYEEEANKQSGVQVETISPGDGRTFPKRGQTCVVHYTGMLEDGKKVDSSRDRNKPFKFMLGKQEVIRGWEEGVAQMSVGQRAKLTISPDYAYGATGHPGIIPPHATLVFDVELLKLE
From the text: Biochemical reporter systems were generated to evaluate the ability of CNOT7 binding compounds to accelerate the degradation of RNA by CNOT7. […] Generation of the target RNA was described in the previous experiment. […] The bifunctional molecules consist of Compound 1-4 and the following rSM:
which binds to the RNA sequence of AST-X, or the rSM linked to a tag that binds CNOT7-FKBPV. Specifically, the tag is compound AP1867 (CAS NO.: 195514-23-9), a known binder of FKBPV, resulting in the rSM-AP1867tag. The CNOT7-FKBPV is obtained by immunoprecipitation of cell engineered to express CNOT-FKBPV. Specifically, H1299 cells were transfected with plasmid expressing HA-tagged CNOT7-FKBP12(F36V) fusion protein. After 24 hours, cells were pelleted and lysed in the following lysis buffer: 20 mM HEPES pH 7.3, 0.2 mM EGTA, 10% glycerol, 0.1 mM DTT with cOmplete EDTA-free protease inhibitors (Millipore). After freeze-thawing, NaCl was added to a concentration of 400 mM and lysates were pelleted to clear cellular debris. Cleared lysate was adjusted to buffer conditions containing 0.1% NP-40 and 150 mM NaCl before being applied to Pierce Anti-HA magnetic beads (ThermoFisher) at 4° C. for 2-20 hours with end-over-end rotation. After washing, bound protein was competitively eluted with 2 mg/mL HA peptide (ThermoFisher) in activity assay buffer at 4° C. for 2-20 hours. It should be appreciated that this immunoprecipitation protocol will result in tagged CNOT7 that will likely have other components of the CCR4-NOT complex bound as well.
The reactions were incubated at 37° C., with specified timepoints removed from the reaction and combined with 2× formamide RNA loading buffer with 10 mM EDTA before boiling for 3 minutes to quench the reaction. Samples were run on a pre-warmed 15% TBE-Urea polyacrylamide gel at 180V for 90 minutes and then imaged using Cy2 settings on the Azure Biosystems 600 Imaging System. […] It should be noted that the CCR4-NOT complex includes proteins other than CNOT7, for instance CNOT6, that have deadenylation and/or exonuclease activity.
These findings were confirmed in the biochemical assay described above. […] In contrast, literature compounds that are active site binders, compounds A, B and C, structure depicted on the right-hand side, do interfere with the ability of CNOT7 to degrade RNA (See center panel of gel).
Heterobifunctional molecules were generated by conjugating the rSM depicted above, which binds RNA with an AST-X sequence, to AP1867 (a small molecule binder of FKBP12(F36V)), resulting in rSM-AP1867tag. In addition, I-243 was conjugated to the rSM resulting in compounds 1-329 and I-371, depicted in FIG. 17. Fluorescently labeled RNA substrates were refolded in the presence of Mg^2+ and incubated 10, 25, or 50 μM doses of heterobifunctional molecules for 30 minutes at room temperature before the enzymatic reaction was initiated with the elution fraction (containing CNOT7-FKBP12(F36V) fusion protein) from the immunoprecipitation protocol above. The reactions were incubated at 37° C., with specified timepoints removed from the reaction and combined with 2× formamide RNA loading buffer with 10 mM EDTA before boiling for 3 minutes to quench the reaction. Samples were run on a pre-warmed 15% TBE-Urea polyacrylamide gel at 180V for 120 minutes and then imaged using Cy2 settings on the Azure Biosystems 600 Imaging System (See FIGS. 18, 19A and 19B). In addition, for 1-371 and the control rSM-AP1867tag, the disappearance of the full-length substrate band was quantified using ImageJ and plotted over time (FIG. 19B).

[5] = Table 5, dissociation constant for CNOT7 by SPR
[6] = Table 6, dissociation constant for CNOT7 by SPR
[7] = dissociation constant by SPR, Table 7

T1 sequence (Q9UIV1 whole entry): as the sequence (Q9UIV1 whole entry) above

Row | Compound | inhibition of CNOT7 activity (rate of deadenylation vs DMSO control) (CNOT7 [2]) | inhibited or accelerated the deadenylation activity of the CNOT7:CNOT1 complex (CNOT7:CNOT1 complex) | Kd (CNOT7 [1]; [7]) [µM] | Activity by gel [4] | further results
1 | COc1ccc(C(C)NC(=O)CSc2nc(=O)[nH]cc2C)c(F)c1 (stereo not drawn) [Compound I-243] | slightly inhibited CNOT7 activity | neither |  |  | Kd (CNOT7 [1]; [5]): 0.1 to 1 µM
2 | COc1ccc([C@@H](C)NC(=O)CSc2nc(=O)[nH]cc2Cl)c(F)c1 [Compound I-330] | slightly inhibited CNOT7 activity | neither | 1 to 25 |  | Kd (CNOT7 [1]; [6]): 0.1 to 1 µM
3 | Cc1c[nH]c(=O)nc1SCC(=O)NCc1ccccc1 [Compound I-3, N-Benzyl-2-[(5-methyl-2-oxo-1H-pyrimidin-4-yl)sulfanyl]acetamide] |  |  |  |  | Kd (CNOT7 [1]; Table 4, dissociation constant for CNOT7): > 25 µM; SPR signal additive to AMP (additive = binds CNOT7 at a location other than the active site) (CNOT7 [3]): additive to AMP; interference with the ability of CNOT7 to degrade RNA ([4]; compound added to the CNOT7 and RNA mixture (FIG. 11)): did not interfere
4 | COc1ccc2c(c1)CCN(C(=O)CSc1nc(=O)[nH]cc1C)C2 [Compound I-198] | did not inhibit CNOT7 activity | neither |  |  | Kd (CNOT7 [1]; [5]): 1 to 25 µM
5 | COc1ccc(CNC(=O)[C@H](COCCOCCOCCn2cc(COCCOCCOCCOCCOc3ccc(NC(=O)Nc4nc(CC(=O)N5CCN(C)CC5)cs4)cc3)nn2)Sc2nc(=O)[nH]cc2C)c(F)c1 [Compound I-478] |  |  | 1 to 25 | + | 
6 | COc1ccc(C(C)NC(=O)C(CCOCCOCCOCCn2cc(COCCOCCOc3ccc(NC(=O)Nc4nc(CC(=O)N5CCN(C)CC5)cs4)cc3)nn2)Sc2nc(=O)[nH]cc2Cl)c(F)c1 (stereo not drawn) [Compound I-395] |  |  | 1 to 25 | + (weak) | 
7 | COc1ccc2c(c1)C[C@H](COCCOCCOCCOCCn1cc(COCCOCCOc3ccc(NC(=O)Nc4nc(CC(=O)N5CCN(C)CC5)cs4)cc3)nn1)C(C(=O)CSc1nc(=O)[nH]cc1C)C2 (stereo partly drawn) [Compound I-496] | inhibit some of the CNOT7 activity | neither | > 25 | + | 
8 | COc1ccc(C(C)NC(=O)C(COCCOCCOCCc2cn(COc3ccc(NC(=O)Nc4nc(CC(=O)N5CCN(C)CC5)cs4)cc3)nn2)Sc2nc(=O)[nH]cc2C)c(F)c1 (stereo not drawn) [Compound I-329] |  |  | 1 to 25 | − | Kd (CNOT7 [1]; [6]): 1 to 25 µM; relative potency in biochemical assay ([4]; bait conjugated to rSM (Example 17, FIG. 18)): more potent
9 | COc1ccc([C@@H](C)NC(=O)[C@H](COCCOCCOCc2cn(CCOc3ccc(NC(=O)Nc4nc(CC(=O)N5CCN(C)CC5)cs4)cc3)nn2)Sc2nc(=O)[nH]cc2Cl)c(F)c1 [Compound I-373] |  |  | > 25 | + | 
10 | COc1ccc([C@@H](C)NC(=O)[C@@H](CCOCCOCCOCCn2cc(COCCOCCOCCOCCOc3ccc(NC(=O)Nc4nc(CC(=O)N5CCN(C)CC5)cs4)cc3)nn2)Sc2nc(=O)[nH]cc2Cl)c(F)c1 [Compound I-397] | inhibit some of the CNOT7 activity |  | 1 to 25 | + | 
11 | COc1ccc(CNC(=O)[C@H](COCCOCCOCCn2cc(COCCOCCOc3ccc(NC(=O)Nc4nc(CC(=O)N5CCN(C)CC5)cs4)cc3)nn2)Sc2nc(=O)[nH]cc2C)cc1 [Compound I-469] |  |  | 1 to 25 | − | 
12 | COc1ccc2c(c1)C[C@@H](COCCOCCOCCOCCn1cc(COCCOCCOCCOCCOc3ccc(NC(=O)Nc4nc(CC(=O)N5CCN(C)CC5)cs4)cc3)nn1)N(C(=O)CSc1nc(=O)[nH]cc1C)C2 [Compound I-497] |  |  | > 25 | + (weak) | 
13 | COc1ccc(CNC(=O)[C@H](COCCOCCOCCn2cc(COCCOCCOc3ccc(NC(=O)Nc4nc(CC(=O)N5CCN(C)CC5)cs4)cc3)nn2)Sc2nc(=O)[nH]cc2C)c(F)c1 [Compound I-474] |  |  | 1 to 25 | − | 
